Assay results taken from patent US12486302B2, “Somatostatin receptor antagonist compounds and methods of using the same” (CDRD VENTURES INC., priority 2016, dated 2025).
*1 amine or outer side, *2 acyl side, *3 side chain or, on linkers, in order; H or OH if unused. Where a SMILES comes first, the peptide text is derived from it. Bridges are numbered along the chain shown (N, C = ends). Side-chain parts run from the residue outwards. [ ]: non-standard residue; d: D form. The star is where a group is joined. X1 = O=C([C@@H](Cc1ccc(NS(=O)(=O)c2ccccc2)cc1)N[*:1])[*:2]; dPhe(4-CH2NHCONH2) = NC(=O)NCc1ccc(C[C@@H](N)C(=O)O)cc1; dPhe(4-CONH2) = NC(=O)c1ccc(C[C@@H](N)C(=O)O)cc1; X2 = CCCCCNc1ccc(C[C@@H](N[*:1])C(=O)[*:2])cc1; dPhe(4-NH2) = Nc1ccc(C[C@@H](N)C(=O)O)cc1; Phe(4-Cl) = N[C@@H](Cc1ccc(Cl)cc1)C(=O)O; dCit = NC(=O)NCCC[C@@H](N)C(=O)O; Lys(Me) = CNCCCC[C@H](N)C(=O)O; CO = O=C([*:1])[*:2]; NHPh = c1ccc(N*)cc1

Legend:
SSTR3 = SSTR3 (Homo sapiens, UniProt P32745); assay: PathHunter β-Arrestin assay, antagonist mode, SSTR3; format: cell-based; settings: agonist challenge at EC80
Chain of SSTR3 (P32745 whole entry, the tested form may be a part): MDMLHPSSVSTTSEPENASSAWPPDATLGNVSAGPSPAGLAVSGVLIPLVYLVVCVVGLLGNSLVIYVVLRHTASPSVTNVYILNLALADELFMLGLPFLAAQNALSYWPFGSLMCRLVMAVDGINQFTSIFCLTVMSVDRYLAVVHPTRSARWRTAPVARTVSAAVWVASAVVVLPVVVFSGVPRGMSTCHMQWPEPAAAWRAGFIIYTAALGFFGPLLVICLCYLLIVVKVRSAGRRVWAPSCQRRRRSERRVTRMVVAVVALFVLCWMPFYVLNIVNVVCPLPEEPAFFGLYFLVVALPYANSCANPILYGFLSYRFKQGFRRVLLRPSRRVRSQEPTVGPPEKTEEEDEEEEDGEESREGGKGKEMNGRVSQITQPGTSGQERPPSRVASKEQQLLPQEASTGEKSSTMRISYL
Experimental: (§1) The PathHunter® β-Arrestin assay monitors the activation of a GPCR in a homogenous, non-imaging assay format using a technology developed by DiscoveRx called Enzyme Fragment Complementation (EFC) with β-galactosidase (β-Gal) as the functional reporter. […] EA is fused to β-Arrestin and […] is fused to the GPCR of interest. When the GPCR is activated and β-Arrestin is recruited to the receptor, ED and EA complementation occurs, restoring β-Gal activity which is measured using chemiluminescent PathHunter® Detection Reagents. For antagonist determination, cells were pre-incubated with the compounds followed by agonist challenge at the EC80 concentration. Data was normalized to the maximal and minimal response observed in the presence of EC80 ligand and vehicle. Compound activity was analyzed using CBIS data analysis suite ChemInnovation, CA). Percentage inhibition was calculated using the following formula: % Inhibition=100%×(1−(mean signal of test sample-mean signal of vehicle control)/(mean signal of EC80 control-mean signal of vehicle control)). Percentage inhibition was calculated at 10 concentrations in steps on a Log 3 scale ranging from […] to 5e-5 μM. The results were plotted for IC50 calculation.

SSTR1 = SSTR1 (Homo sapiens, UniProt P30872); assay: PathHunter β-Arrestin assay, antagonist mode, SSTR1; format: cell-based; settings: agonist challenge at EC80
Chain of SSTR1 (P30872 whole entry): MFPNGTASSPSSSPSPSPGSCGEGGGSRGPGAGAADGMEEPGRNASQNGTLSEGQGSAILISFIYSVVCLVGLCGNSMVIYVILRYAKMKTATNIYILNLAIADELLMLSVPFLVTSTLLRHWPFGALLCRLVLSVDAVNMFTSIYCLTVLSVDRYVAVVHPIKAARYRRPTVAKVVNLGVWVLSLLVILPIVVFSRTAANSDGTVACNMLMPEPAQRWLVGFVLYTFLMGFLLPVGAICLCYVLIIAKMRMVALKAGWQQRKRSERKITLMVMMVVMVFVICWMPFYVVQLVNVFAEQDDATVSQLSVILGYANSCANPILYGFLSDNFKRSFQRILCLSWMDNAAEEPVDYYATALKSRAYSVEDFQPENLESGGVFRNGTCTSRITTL
Experimental: as §1

[1] = target: somatostatin type 2 (SSTR2) receptors (Homo sapiens, UniProt P30874); assay: PathHunter β-Arrestin assay, antagonist mode, SSTR2; format: cell-based; settings: agonist challenge at EC80
Chain of somatostatin type 2 (SSTR2) receptors (P30874 whole entry): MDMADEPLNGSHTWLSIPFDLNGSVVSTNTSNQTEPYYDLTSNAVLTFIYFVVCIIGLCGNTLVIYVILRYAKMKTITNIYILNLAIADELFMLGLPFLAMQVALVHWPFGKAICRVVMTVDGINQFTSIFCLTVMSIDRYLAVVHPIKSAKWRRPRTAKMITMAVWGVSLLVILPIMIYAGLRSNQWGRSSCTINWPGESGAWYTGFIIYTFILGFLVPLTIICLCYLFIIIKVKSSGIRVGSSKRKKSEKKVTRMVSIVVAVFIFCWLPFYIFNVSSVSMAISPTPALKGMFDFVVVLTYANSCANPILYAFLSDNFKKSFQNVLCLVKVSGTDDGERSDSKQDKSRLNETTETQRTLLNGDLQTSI
Summary of the method: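 Cells co-expressing PK-tagged human receptor and EA-β-Arrestin were pre-incubated with compound, then challenged with agonist at EC80. β-Gal complementation read by chemiluminescence; % inhibition normalized to EC80 and vehicle controls at 10 concentrations (log 3 steps from 1 μM down to 5e-5 μM), fitted for IC50.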

SSTR5 = SSTR5 (Homo sapiens, UniProt P35346); assay: PathHunter β-Arrestin assay, antagonist mode, SSTR5; format: cell-based; settings: agonist challenge at EC80
Chain of SSTR5 (P35346 whole entry): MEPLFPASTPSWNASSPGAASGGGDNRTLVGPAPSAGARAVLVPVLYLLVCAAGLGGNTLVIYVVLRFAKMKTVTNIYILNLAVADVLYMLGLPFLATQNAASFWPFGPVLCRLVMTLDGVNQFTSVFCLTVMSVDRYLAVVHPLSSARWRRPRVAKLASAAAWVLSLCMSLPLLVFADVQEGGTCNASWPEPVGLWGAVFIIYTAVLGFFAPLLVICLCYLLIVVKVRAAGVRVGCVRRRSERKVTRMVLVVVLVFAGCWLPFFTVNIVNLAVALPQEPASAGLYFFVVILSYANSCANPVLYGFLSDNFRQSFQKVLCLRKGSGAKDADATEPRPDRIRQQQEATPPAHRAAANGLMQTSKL
Experimental: as §1

SSTR4 = SSTR4 (Homo sapiens, UniProt P31391); assay: PathHunter β-Arrestin assay, antagonist mode, SSTR4; format: cell-based; settings: agonist challenge at EC80
Chain of SSTR4 (P31391 whole entry): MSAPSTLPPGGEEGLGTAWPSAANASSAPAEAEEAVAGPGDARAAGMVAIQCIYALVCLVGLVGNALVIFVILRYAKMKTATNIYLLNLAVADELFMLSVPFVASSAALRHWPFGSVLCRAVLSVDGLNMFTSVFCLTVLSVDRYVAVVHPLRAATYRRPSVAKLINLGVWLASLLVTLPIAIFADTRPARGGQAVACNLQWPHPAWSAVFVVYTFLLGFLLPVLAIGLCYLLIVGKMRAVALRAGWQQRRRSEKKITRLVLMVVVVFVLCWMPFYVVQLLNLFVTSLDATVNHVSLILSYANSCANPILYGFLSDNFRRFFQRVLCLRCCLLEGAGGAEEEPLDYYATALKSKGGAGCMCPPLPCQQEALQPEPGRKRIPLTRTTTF
Experimental: as §1

[2] = test system: STZ diabetic Sprague Dawley rats; assay: Hypoglycemic Challenge #2 (20 U/kg insulin) in STZ diabetic rats; format: in vivo, rat; settings: 20 U/kg insulin challenge; target BG 2.5 mM; N=9
Experimental: (§2) Male Sprague Dawley rats (initial weight 150-175 g) were purchased from Charles River Laboratories (Montreal, QC, Canada). Rats were housed in the York University Vivarium in a 12-hour light dark cycle. All animals were fed a standard rodent chow diet (14% fat, 54% carbohydrates, […] & 3.0 calories/g of food) and water ad libitum. After a minimum of one week of acclimation, all animals received an intraperitoneal injection of streptozotocin (STZ) (Sigma) at a dose of 65 mg/kg body weight. After STZ injection, animals were provided with sugar water (5% solution) overnight. Any animals whose blood glucose was not greater than 10 mM within 2 days of STZ injection received a second injection.
One week after induction of diabetes, insulin treatment was initiated to maintain blood glucose values within a reasonable glucose controlled range in the fasted state (8-20 mM). Insulin pellets (LinChin, Toronto, ON, Canada) were implanted subcutaneously in any rat with blood glucose over 20 mM. […]
One week after the first hypoglycemia challenge, a second similar hypoglycemic challenge (Hypoglycemia Challenge #2) was conducted; however this time a higher dose of insulin was given to insure that severe hypoglycemia developed (20U Novo Rapid/kg body weight). Blood glucose was monitored, every 5-10 min, via saphenous vein puncture. […]

[3] = test system: STZ diabetic Sprague Dawley rats; assay: Hypoglycemic Challenge #1 (10 U/kg insulin) in STZ diabetic rats; format: in vivo, rat; settings: for period after insulin with significantly higher BG values compared with Vehicle Control: 2-Way ANOVA, insulin 10 U/kg; for peak glucagon value: saphenous blood, 0 to 100 minutes after insulin dosing
Experimental: as §2
One week after induction of diabetes, insulin treatment was initiated to maintain blood glucose values within a reasonable glucose controlled range in the fasted state (8-20 mM). Insulin pellets (LinChin, Toronto, ON, Canada) were implanted subcutaneously in any rat with blood glucose over 20 mM. Briefly, animals were anesthetized via inhaled isoflurane and pellets were implanted subcutaneously within the scapular region. One week later animals underwent their first hypoglycemic challenge (Hypoglycemic Challenge #1), followed by a second hypoglycemic challenge (Hypoglycemic Challenge #2) the following week (see below). Throughout the study, daily animals checks were conducted to assess body weight, blood glucose as well as food/calorie consumption.
Animals were divided into groups and received Compound 4, or Compound 24 or a corresponding dose of vehicle. Compounds were given 1 hour prior to commencement of the hypoglycemic challenge. On the morning of the hypoglycemic challenge, food was removed from the cage and a plasma sample was collected as baseline (prior to compound/vehicle administration), one-hour post drug/vehicle administration and at set points throughout the challenges.
For Hypoglycemic Challenge #1, hypoglycemia was induced via subcutaneous administration of a bolus of insulin (10U Novo Rapid insulin/kg body weight). Blood glucose was assessed every 10 minutes via saphenous vein puncture. Additionally, plasma was collected from the saphenous vein every 20 minutes, until 100-minutes post insulin administration. An additional plasma sample was collected 4-hours post drug administration (3 hours post insulin bolus) for mass spectrometry analysis of the compounds in plasma.

C[C@@H](O)[C@@H]1NC(=O)[C@H](CCCCN)NC(=O)[C@@H](CCCNC(N)=O)NC(=O)[C@H](Cc2ccc(O)cc2)NC(=O)[C@H](NC(=O)[C@@H](N)Cc2ccc(Cl)cc2)CSSC[C@@H](C(=O)N[C@H](Cc2ccc(O)cc2)C(N)=O)NC1=O [Compound 1, H-Cpa-cyclo[D-Cys-Tyr-D-Cit-Lys-Thr-Cys]-D-Tyr-NH2] (H-[Phe(4-Cl)][dC]Y[dCit]KTC[dY]-NH2; disulfide 2-7)
IC50 (SSTR3): > 1000 nM | IC50 (SSTR1): > 1000 nM | IC50 [1]: 34 nM | IC50 (SSTR5): > 1000 nM | IC50 (SSTR4): > 1000 nM

C[C@@H](O)[C@@H]1NC(=O)[C@H](CCCCN)NC(=O)[C@@H](Cc2ccc(C(N)=O)cc2)NC(=O)[C@H](Cc2ccc(O)cc2)NC(=O)[C@H](NC(=O)[C@@H](N)Cc2ccc(Cl)cc2)CSSC[C@@H](C(=O)N[C@H](Cc2ccc(O)cc2)C(N)=O)NC1=O [Compound 4, H-Cpa-cyclo[D-Cys-Tyr-D-Phe(4-carbamoyl)-Lys-Thr-Cys]-D-Tyr-NH2]
IC50 (SSTR3): > 1000 nM | IC50 (SSTR1): > 1000 nM | IC50 [1]: 17 nM | average portal blood glucagon concentration at hypoglycemia [2]: 462 pg/mL | period after insulin with significantly higher BG values compared with Vehicle Control ([3]; N=9): 20 min | incidence of severe hypoglycemia (BG threshold 1.9 mM) ([3]; after 130 minutes): 33% | peak glucagon value ([3]; N=9): 180 pg/mL | IC50 (SSTR5): > 1000 nM | IC50 (SSTR4): > 1000 nM

C[C@@H](O)[C@@H]1NC(=O)[C@H](CCCCN)NC(=O)[C@@H](Cc2ccc(CNC(N)=O)cc2)NC(=O)[C@H](Cc2ccc(O)cc2)NC(=O)[C@H](NC(=O)[C@@H](N)Cc2ccc(Cl)cc2)CSSC[C@@H](C(=O)N[C@H](Cc2ccc(O)cc2)C(N)=O)NC1=O [Compound 7, H-Cpa-cyclo[DCys- Tyr-D-(4- ureidomethyl) Phe-Lys- Thr-Cys]-DTyr-NH2] (H-[Phe(4-Cl)][dC]Y[dPhe(4-CH2NHCONH2)]KTC[dY]-NH2; disulfide 2-7)
IC50 (SSTR3): > 1000 nM | IC50 (SSTR1): > 1000 nM | IC50 [1]: 31 nM | IC50 (SSTR5): > 1000 nM | IC50 (SSTR4): > 1000 nM

CCCCCNc1ccc(C[C@H]2NC(=O)[C@H](Cc3ccc(O)cc3)NC(=O)[C@H](NC(=O)[C@@H](N)Cc3ccc(Cl)cc3)CSSC[C@@H](C(=O)N[C@H](Cc3ccc(O)cc3)C(N)=O)NC(=O)[C@H]([C@@H](C)O)NC(=O)[C@H](CCCCN)NC2=O)cc1 [Compound 12, H-Cpa-cyclo[D-Cys-Tyr-D-Phe(4-n-pentylamino)-Lys-Thr-Cys]-D-Tyr-NH2] (H-[Phe(4-Cl)][dC]Y[X2]KTC[dY]-NH2; disulfide 2-7)
IC50 (SSTR3): > 1000 nM | IC50 (SSTR1): > 1000 nM | IC50 [1]: 17 nM | IC50 (SSTR5): > 1000 nM | IC50 (SSTR4): > 1000 nM

C[C@@H](O)[C@@H]1NC(=O)[C@H](CCCCN)NC(=O)[C@@H](Cc2ccc(NS(=O)(=O)c3ccccc3)cc2)NC(=O)[C@H](Cc2ccc(O)cc2)NC(=O)[C@H](NC(=O)[C@@H](N)Cc2ccc(Cl)cc2)CSSC[C@@H](C(=O)N[C@H](Cc2ccc(O)cc2)C(N)=O)NC1=O [Compound 14, H-Cpa-cyclo[DCys- Tyr-D-4- (benzenesulfonyl) Aph-Lys-Thr- Cys]-DTyr-NH2] (H-[Phe(4-Cl)][dC]Y[X1]KTC[dY]-NH2; disulfide 2-7)
IC50 (SSTR3): > 1000 nM | IC50 (SSTR1): > 1000 nM | IC50 [1]: 21 nM | IC50 (SSTR5): > 1000 nM | IC50 (SSTR4): > 1000 nM

C[C@@H](O)[C@@H]1NC(=O)[C@H](CCCCN)NC(=O)[C@@H](Cc2ccc(NC(=O)Nc3ccccc3)cc2)NC(=O)[C@H](Cc2ccc(O)cc2)NC(=O)[C@H](NC(=O)[C@@H](N)Cc2ccc(Cl)cc2)CSSC[C@@H](C(=O)N[C@H](Cc2ccc(O)cc2)C(N)=O)NC1=O [Compound 15, H-Cpa-cyclo[D-Cys-Tyr-D-Phe(4-phenylureido)-Lys-Thr-Cys]-D-Tyr-NH2] (H-[Phe(4-Cl)][dC]Y[dPhe(4-NH2)]([CO-NHPh])KTC[dY]-NH2; disulfide 2-7)
IC50 (SSTR3): > 1000 nM | IC50 (SSTR1): > 1000 nM | IC50 [1]: 1 nM | IC50 (SSTR5): > 1000 nM | IC50 (SSTR4): > 1000 nM

CC(C)[C@H](N)C(=O)Nc1ccc(C[C@H]2NC(=O)[C@H](Cc3ccc(O)cc3)NC(=O)[C@H](NC(=O)[C@@H](N)Cc3ccc(Cl)cc3)CSSC[C@@H](C(=O)N[C@H](Cc3ccc(O)cc3)C(N)=O)NC(=O)[C@H]([C@@H](C)O)NC(=O)[C@H](CCCCN)NC2=O)cc1 [Compound 23, H-Cpa-cyclo[DCys- Tyr-D-4-(Val)Aph- Lys-Thr-Cys]- DTyr-NH2] (H-[Phe(4-Cl)][dC]Y[dPhe(4-NH2)](Val)KTC[dY]-NH2; disulfide 2-7)
IC50 (SSTR3): > 1000 nM | IC50 [1]: 458 nM

CNCCCC[C@@H]1NC(=O)[C@@H](Cc2ccc(C(N)=O)cc2)NC(=O)[C@H](Cc2ccc(O)cc2)NC(=O)[C@H](NC(=O)[C@@H](N)Cc2ccc(Cl)cc2)CSSC[C@@H](C(=O)N[C@H](Cc2ccc(O)cc2)C(N)=O)NC(=O)[C@H]([C@@H](C)O)NC1=O [Compound 24, H-Cpa-cyclo[D-Cys-Tyr-D-Phe(4-carbamoyl)-Lys(N^ε-Me)-Thr-Cys]-D-Tyr-NH2] (H-[Phe(4-Cl)][dC]Y[dPhe(4-CONH2)][Lys(Me)]TC[dY]-NH2; disulfide 2-7)
IC50 (SSTR3): > 1000 nM | IC50 (SSTR1): > 1000 nM | IC50 [1]: 0.96 nM | average portal blood glucagon concentration at hypoglycemia [2]: 801 pg/mL | period after insulin with significantly higher BG values compared with Vehicle Control ([3]; N=9): 40 min | time at which rats first became hypoglycemic (BG threshold 3.9 mM) ([3]; 2 of 9 rats, after insulin 10 U/kg): 40 min | average time to onset of hypoglycemia (BG first reached 3.9 mM) ([3]; after 10 U/kg insulin dose, interpolated from BG curves, N=9): 97 min | incidence of severe hypoglycemia (BG threshold 1.9 mM) ([3]; after 150 minutes): 44% | AUC of blood glucose below the 3.9 mM threshold (extent of hypoglycemia) ([3]; compound at t=-60 min, insulin 10 U/kg at t=0, N=9): 55 mM·min | number of rats that never became hypoglycemic ([3]; of 9 rats, BG threshold 3.9 mM): 1 | peak glucagon value ([3]; N=9): 175 pg/mL | IC50 (SSTR5): > 1000 nM | IC50 (SSTR4): > 1000 nM
